Experimental findings from patent US20030176390A1, “Methods of treating insulin resistance syndrome and diabetes” (priority 2001, published 2003) are described below.

Molecules are shown by their SMILES. pEC50: −log10 of the molar value.

System in the first series: not given
Assay: not given
Details: not given
One may read the melting point as the temperature, or range, at which the solid turns liquid. `OC[C@H]1O[C@@H](n2cnc3c(N[C@@H]4CCN(c5ccc(C(F)(F)F)cn5)C4)ncnc32)[C@H](O)[C@@H]1O` (hydrate or solvate) [Example 4, (2R,3R,4S,5R)-5-hydroxymethyl-2-[6-[1-(5-trifluoromethylpyridin-2-yl)-pyrrolidin-3(R)-ylamino]purin-9-yl]tetrahydrofuran-3,4-diol] displayed a melting point of 166 to 170 °C. `OC[C@H]1O[C@@H](n2cnc3c(N[C@H]4CCN(c5ccc(Cl)cn5)C4)ncnc32)[C@H](O)[C@@H]1O` [Example 8, (2R,3R,4S,5R)-5-hydroxymethyl-2-[6-[1-(5-chloropyridin-2-yl)-pyrrolidin-3(S)-ylamino]-purin-9-yl]-tetrahydrofuran-3,4-diol] came in with a melting point of 154 to 156 °C. Same read-out and setting: to `OC[C@H]1O[C@@H](n2cnc3c(N[C@H]4CCN(c5cc(C(F)(F)F)ccn5)C4)ncnc32)[C@H](O)[C@@H]1O` [Example 10, (2R,3R,4S,5R)-5-hydroxymethyl-2-[6-[1-(4-trifluoromethylpyridin-2-yl)-pyrrolidin-3(S)-ylamino]-purin-9-yl]tetrahydrofuran-3,4-diol] belongs 187 to 190 °C. Compound `O=[N+]([O-])c1ccc(N2CC[C@H](Nc3ncnc4c3ncn4[C@@H]3O[C@H](CO)[C@@H](O)[C@H]3O)C2)cc1` [Example 12, (2R,3R,4S,5R)-5-hydroxymethyl-2-(6-(1-(4-nitrophenyl)-pyrrolidin-3(S)-ylamino)-purin-9-yl) tetrahydrofuran-3,4-diol] showed a melting point of 230 to 232 °C. The compound `OC[C@H]1O[C@@H](n2cnc3c(NC4CCCN(c5ccc(C(F)(F)F)cn5)C4)ncnc32)[C@H](O)[C@@H]1O` (stereo partly drawn) [Example 13, (2R,3R,4S,5R)-5-hydroxymethyl-2-[6-(5′-trifluoromethyl-3,4,5,6-tetrahydro-2H-[1,2′]-bipyridinyl-3-ylamino)-purin-9-yl]tetrahydrofuran-3,4-diol] gave a melting point of 113 to 116 °C.

`OC[C@H]1O[C@@H](n2cnc3c(N[C@H]4CCN(c5ccccn5)C4)ncnc32)[C@H](O)[C@@H]1O` [Example 15, (2R,3R,4S,5R)-5-hydroxymethyl-2-[6-(1-pyridin-2-ylpyrrolidin-3(S)-ylamino]-purin-9-yl]tetrahydrofuran-3,4-diol] registered a melting point of 193 to 195 °C. Take `OC[C@H]1O[C@@H](n2cnc3c(N[C@H]4CCN(c5ccc(Cl)cc5)C4)ncnc32)[C@H](O)[C@@H]1O` [Example 16, (2R,3R,4S,5R)-5-hydroxymethyl-2-[6-[1-(4-chlorophenyl)-pyrrolidin-3(S)-ylamino]-purin-9-yl]-tetrahydrofuran-3,4-diol]: the melting point was 121 to 124 °C. On the same count and under the same terms, to `Cc1ccc(N2CC[C@H](Nc3ncnc4c3ncn4[C@@H]3O[C@H](CO)[C@@H](O)[C@H]3O)C2)nc1` [Example 17, (2R,3R,4S,5R)-5-hydroxymethyl-2-[6-[1-(5-methylpyridin-2-yl)-pyrrolidin-3(S)-ylamino]-purin-9-yl]tetrahydrofuran-3,4-diol] belongs 164 to 166 °C; to `CSc1ccc(N2CC[C@H](Nc3ncnc4c3ncn4[C@@H]3O[C@H](CO)[C@@H](O)[C@H]3O)C2)nc1` [Example 19, (2R,3R,4S,5R)-5-hydroxymethyl-2-[6-[1-(5-methylmercaptopyridin-2-yl)-pyrrolidin-3(S)-ylamino]-purin-9-yl]tetrahydrofuran-3,4-diol], 231 to 233 °C. With `COC[C@H]1O[C@@H](n2cnc3c(N[C@H]4CCN(c5ccc(C(F)(F)F)cn5)C4)ncnc32)[C@H](O)[C@@H]1O` [Example 23, (2R,3R,4S,5R) -5-methoxymethyl-2-[6-[1-(5-trifluoromethylpyridin-2-yl)-pyrrolidin-3(S)-ylamino]-purin-9-yl]tetrahydrofuran-3,4-diol], the melting point was 198 to 200 °C. Same read-out and setting: with `O=[N+]([O-])c1ccc(N2CCC(Nc3ncnc4c3ncn4[C@@H]3C[C@H](CO)[C@@H](O)[C@H]3O)CC2)cc1` [Example 25, (1R,2S,3R,5R)-5-hydroxymethyl-3-[6-[1-(4-nitrophenyl)piperidin-4-ylamino]-purin-9-yl]cyclopentane-1,2-diol] the figure was 126 to 128 °C. Same read-out and setting: to `OC[C@H]1C[C@@H](n2cnc3c(N[C@@H]4CCNC4)ncnc32)[C@H](O)[C@@H]1O` [Example 28, (1R,2S,3R,5R)-5-hydroxymethyl-3-[6-((3R)-pyrrolidin-3-ylamino)-purin-9-yl]cyclopentane-1,2-diol] belongs 166 °C (dec.); to `OC[C@H]1C[C@@H](n2cnc3c(N[C@H]4CCN(c5cnc6ccccc6c5)C4)ncnc32)[C@H](O)[C@@H]1O` [Example 36, (1R,2S,3R,5R)-5-hydroxymethyl-3-[6-[1-(quinolin-3-yl)pyrrolidin-3(S)-ylamino]-purin-9-yl]cyclopentane-1,2-diol], 135 to 138 °C; to `OC[C@H]1C[C@@H](n2cnc3c(N[C@H]4CCN(c5cc(Cl)ncn5)C4)ncnc32)[C@H](O)[C@@H]1O` [Example 45, (1R,2S,3R,5R)-3-[6-[1-(6-chloropyrimidin-4-yl)pyrrolidin-3(S)-ylamino]-purin-9-yl]-5-hydroxymethylcyclopentane-1,2-diol], 180 to 182 °C. The compound `COC[C@H]1C[C@@H](n2cnc3c(N[C@H]4CCN(c5cc(OC)ncn5)C4)ncnc32)[C@H](O)[C@@H]1O` [Example 48, (1R,2S,3R,5R)-5-methoxymethyl-3-[6-[1-(6-methoxypyrimidin-4-yl)pyrrolidin-3(S)-ylamino]-purin-9-yl]cyclopentane-1,2-diol] showed a melting point of 118 to 120 °C. Same read-out and setting: to `CC(C)OC[C@H]1C[C@@H](n2cnc3c(N[C@H]4CCN(c5ccc(C(F)(F)F)cn5)C4)ncnc32)[C@H](O)[C@@H]1O` [Example 49, (1R,2S,3R,5R)-5-isopropoxymethyl-3-[6-[1-(5-trifluoromethylpyridin2-yl)pyrrolidin-3(S)-ylamino]-purin-9-yl]cyclopentane-1,2-diol] belongs 157 to 158 °C. On to `COC[C@H]1C[C@@H](n2cnc3c(N[C@H]4CCN(c5ccccc5)C4)ncnc32)[C@H](O)[C@@H]1O` [Example 58, (1R,2S,3R,5R)-5-methoxymethyl-3-[6-[1-phenylpyrrolidin-3-(S)-ylamino]-purin-9-yl]cyclopentan-1,2-diol], for which the melting point turned out to be 106 °C. `OC[C@H]1C[C@@H](n2cnc3c(N[C@H]4CCN(Cc5ccccc5)C4)ncnc32)[C@H](O)[C@@H]1O` [Example 59, (1R,2S,3R,5R)-3-[6-(1-benzyl-pyrrolidin-3(S)-ylamino)purin-9-yl]-5-hydroxymethylcyclopentane-1,2-diol] had a melting point of 100 to 102 °C.

`COC[C@H]1C[C@@H](n2cnc3c(N[C@H]4CCN(Cc5ccccc5)C4)ncnc32)[C@H](O)[C@@H]1O` [Example 60, (1R,2S,3R,5R)-3-[6-(1-benzyl-pyrrolidin-3(S)-ylamino)purin-9-yl]-5-methoxymethylcyclopentane-1,2-diol]: the melting point fell in the range of 95 to 96 °C.

Regarding `CC[C@@H](C)NC(=O)[C@H]1C[C@@H](n2cnc3c(N[C@H]4CCN(c5ccc(C(F)(F)F)cn5)C4)ncnc32)[C@H](O)[C@@H]1O` [Example 62, (1S,2R,3S,4R)-2,3-dihydroxy-4-{6-[1-(5-trifluoromethyl-pyridin-2-yl)-pyrrolidin-3(S)-ylamino]-purin-9-yl}-cyclopentanecarboxylic acid-1(R)-methylpropylamide], the melting point is 206 to 212 °C (dec.).

Another series relates to rat adipocytes. In words: In vitro lipolysis assay (antilipolytic activity in rat adipocytes). It is filed as cell-based. Conditions: norepinephrine-stimulated lipolysis, glycerol assayed, 60 min; read-out: Lipo ec50. The protocol: Determination of Antilipolytic Activity in Rat Adipocytes
Isolation of Adipocytes from Epididymal Fat Pads
Adipose tissue is removed from anesthetized rats and rinsed twice in incubation medium (2.09 g sodium bicarbonate and 0.04 g EDTA, disodium salt, in 1 L Krebs buffer). Each rat (300-350 g) yields approximately 4 mL of adipose tissue. The adipose tissue (35 mL) is cut into small pieces with scissors and washed with incubation medium (50 mL). The mixture is poured into the barrel of a 50 mL syringe to which is attached a short piece of clamped tubing instead of a needle. The aqueous phase is allowed to drain. A second wash with incubation medium is passed through the syringe. The tissue is added to 50 mL of collagenase solution (collagenase (90 mg), bovine serum albumin (BSA) (500 mg), and 0.1 M calcium chloride solution (1 mL), in incubation medium (50 mL)) in a 1 L bottle. The mixture is shaken in an environmental at 37° C. for about 60 minutes under an atmosphere of 95% oxygen/5% carbon dioxide to effect digestion of the tissue. The dispersed cells are poured through 2 layers of cheese cloth into a 100 mL plastic beaker. The undigested clumps in the cloth are rinsed once with incubation medium (20 mL). The cells in the beaker are centrifuged in 2 plastic tubes for 30 seconds at room temperature at 300 rpm. The aqueous phase is aspirated from beneath the loosely packed layer of floating fat cells and discarded. The adipocytes are gently poured into a 250 mL plastic beaker containing 100 mL of rinse solution (1 g BSA per 100 mL incubation medium). After gentle stirring the centrifugation step is repeated. Another wash with rinse solution follows. The cells are pooled and their volume is estimated with a graduated cylinder. The adipocytes are diluted in twice their volume of assay buffer (incubation medium (120 mL), BSA (1.2 g), pyruvic acid (13 mg)).
The assay is performed in 20 mL plastic scintillation vials and the total assay volume is 4.2 mL. Assay buffer (2.5 mL), diluted adipocytes (1.5 mL), and a solution of the compound to be tested (12.3 μL) adenosine agonist (12.3 μl; varying concentration) is incubated in the environmental shaker for 15 minutes, then the reaction is started with norepinephrine solution (41.2 μL) (10 nM, in a carrier solution containing water (100 mL), BSA (4 mg), and 0.1 M EDTA (20 μL))and adenosine deaminase (1 μg/mL, 41.2 μl). After sixty minutes in the shaker the reaction is terminated by putting the vials on ice. […] The hard lipid layer is removed by aspiration and the aqueous layer is assayed for glycerol (400 μl of sample). The positive control is done in the absence of any adenosine agonist, substituting water in place of the solution to be tested.
A word on the pEC50: it is the EC50 on a negative log10 scale, so that one unit is a factor of ten. Consider `CC(C)NC(=O)[C@H]1C[C@@H](n2cnc3c(N[C@H]4CCN(c5cc(C(F)(F)F)ccn5)C4)ncnc32)[C@H](O)[C@@H]1O` [Example 2, (1S,2R,3S,4R)-2,3-dihydroxy-4-[6-[1-(4-trifluormethylpyridin-2-yl)pyrrolidin-3(S)-ylamino]purin-9-yl]cyclopentanecarboxylic acid isopropylamide], for which the pEC50 was 7.96. As to `O=C1C[C@H](Nc2ncnc3c2ncn3[C@@H]2C[C@H](CO)[C@@H](O)[C@H]2O)CN1Cc1ccccc1` [Example 6, 4(S)-1-benzyl-4-[9-((1R,2S,3R,5R)-1,2-dihydroxy-5-hydroxymethylcyclopent-3-yl)-9H-purin-6-ylamino]pyrrolidin-2-one], the pEC50 was 6.57.
